Results published in PMC10856041, “Chemical Epigenetic Regulation Secondary Metabolites Derived from Aspergillus sydowii DL1045 with Inhibitory Activities for Protein Tyrosine Phosphatases” (Molecules, 2024).
Values after ≈ are worked out from the molar mass of the structure shown.

Experiments:
K. pneumonia = tested on: K. pneumonia; parameters: method as in PMID 24736857; conditions: cited from earlier work
A-549 cells = tested on: A-549 cells; parameters: method as in PMID 18505285; conditions: read-out: IC50 cytotoxicity against A-549 cells; cited from earlier work
α-glucosidase = tested on: α-glucosidase; parameters: method as in PMID 24436963; conditions: cited from earlier work
Staphylococcus aureus = tested on: Staphylococcus aureus; parameters: method as in PMID 32449250; conditions: cited from earlier work
nematode = assay: anti-nematode activity
TCPTP = target: T1, TCPTP (Homo sapiens, UniProt P17706); assay: PTP inhibitory activity (p-NPP degradation), TCPTP; format: biochemical; conditions: p-NPP substrate, 37 °C, 30 min, 405 nm; mean ± SD, n = 3
T1 construct: incubated at 37 °C with 2.5 μg domain protein
T1 sequence (P17706 5-275 limits assumed): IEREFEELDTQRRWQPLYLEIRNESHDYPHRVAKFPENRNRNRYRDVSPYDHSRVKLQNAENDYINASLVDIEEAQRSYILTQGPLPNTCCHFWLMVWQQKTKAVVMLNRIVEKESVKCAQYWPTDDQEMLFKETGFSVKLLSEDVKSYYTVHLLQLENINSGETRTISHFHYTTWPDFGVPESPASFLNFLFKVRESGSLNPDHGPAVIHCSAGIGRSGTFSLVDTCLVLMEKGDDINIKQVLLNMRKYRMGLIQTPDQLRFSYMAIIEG
Procedure: (§1) The diabetes-related PTPs (PTP1B, TCPTP, SHP1 and CD45) inhibitory activity of the tested compounds was measured as previously described. The compounds were dissolved in DMSO and incubated at 37 °C with 2.5 μg domain protein, 20 mM 3-(N-Morpholino) propanesulfonic (MOPS), 9 mM p-nitrophenyl phosphate (p-NPP), 50 mM NaCl and 50 mM DTT, pH 7.2. The reaction was performed in a 96-well plate (DMSO as blank control). The reaction was started by adding the assay buffer (50 mM citrate (pH 6.0), 0.1 M NaCl, 1 mM EDTA, and 1 mM dithiothreitol) with a final volume of 150 μL and incubated at 37 °C for 30 min and 10 M NaOH was added to terminate the reaction. The inhibition of PTPs by tested compounds was assessed by measuring the degradation of p-NPP at a wavelength of 405 nm.

PTP1B = target: T2, PTP1B (Homo sapiens, UniProt P18031); assay: PTP inhibitory activity (p-NPP degradation), PTP1B; format: biochemical; conditions: p-NPP substrate, 37 °C, 30 min, 405 nm; mean ± SD, n = 3
T2 construct: incubated at 37 °C with 2.5 μg domain protein
T2 sequence (P18031 3-277 limits assumed): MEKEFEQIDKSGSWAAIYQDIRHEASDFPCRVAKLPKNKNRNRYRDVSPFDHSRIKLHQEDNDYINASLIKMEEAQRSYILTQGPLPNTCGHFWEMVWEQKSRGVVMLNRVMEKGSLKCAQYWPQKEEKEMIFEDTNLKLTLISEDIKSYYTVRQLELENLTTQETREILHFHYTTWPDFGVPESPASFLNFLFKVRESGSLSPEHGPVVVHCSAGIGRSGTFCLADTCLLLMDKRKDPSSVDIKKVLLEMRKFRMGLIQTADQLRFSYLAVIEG
Procedure: as §1

CD45 = target: T3, CD45 (Homo sapiens, UniProt P08575); assay: PTP inhibitory activity (p-NPP degradation), CD45; format: biochemical; conditions: p-NPP substrate, 37 °C, 30 min, 405 nm; mean ± SD, n = 3
T3 sequence (P08575 653-912 limits assumed): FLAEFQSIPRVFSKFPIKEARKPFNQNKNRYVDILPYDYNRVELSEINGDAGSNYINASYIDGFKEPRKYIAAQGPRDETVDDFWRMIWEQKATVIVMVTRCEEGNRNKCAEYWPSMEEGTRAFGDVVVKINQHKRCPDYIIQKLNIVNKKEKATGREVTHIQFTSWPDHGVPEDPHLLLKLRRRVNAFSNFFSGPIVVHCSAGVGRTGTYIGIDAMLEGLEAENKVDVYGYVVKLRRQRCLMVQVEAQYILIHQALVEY
Procedure: as §1

SHP1 = target: T4, SHP1 (Homo sapiens, UniProt P29350); assay: PTP inhibitory activity (p-NPP degradation), SHP1; format: biochemical; conditions: p-NPP substrate, 37 °C, 30 min, 405 nm; mean ± SD, n = 3
T4 construct: incubated at 37 °C with 2.5 μg domain protein
T4 sequence (P29350 244-515 limits assumed): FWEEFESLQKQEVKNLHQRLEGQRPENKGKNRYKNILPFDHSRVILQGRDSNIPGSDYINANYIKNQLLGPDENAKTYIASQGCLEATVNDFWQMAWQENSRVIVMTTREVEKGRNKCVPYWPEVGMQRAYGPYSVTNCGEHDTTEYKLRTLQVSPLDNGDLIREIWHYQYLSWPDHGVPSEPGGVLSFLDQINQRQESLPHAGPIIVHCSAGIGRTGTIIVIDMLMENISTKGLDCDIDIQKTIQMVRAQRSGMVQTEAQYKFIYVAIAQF
Procedure: as §1

HDAC = tested on: HDAC; parameters: method as in PMID 15808449, PMID 31201063; conditions: cited from earlier work
A. sydowii DL1045 = assay: effect of SAHA on growth and fermentation of A. sydowii DL1045; format: cell-based, Aspergillus sydowii DL1045
Procedure: After A. sydowii DL1045 in rice extract culture medium was treated with three different histone deacetylase inhibitors, including suberoylanilide hydroxamic acid (SAHA), […] and nicotinamide, the fermentation status of the fungi was observed. […] The fermentation broth of A. sydowii DL1045 in the control group was dark green, whereas the fermentation broth in the 250 μM SAHA treatment group was golden yellow (Figure 1a,b). In addition, after 10 days, the weight of metabolites was 3.5 times lower in the SAHA group than in the control group (Figure S1, Supplementary Materials). […] This conjecture was confirmed by the results of scanning electron microscopy, and after 10 days of fermentation, the spores detached from the sporangium after maturation in the later stage of fermentation (Figure 1c).
A. sydowii DL1045 was retrieved from deep-sea mud sediment off the coast of Dalian, Liaoning Province, 121.55 °E and 38.88 °N, China. A. sydowii DL1045 was cultivated on potato dextrose agar (PDA) medium, consisting of 200 g/L of potato, 30 g/L of NaCl, 15 g/L of agar, and 20 g/L of dextrose and incubated for three days at 28 °C with 60% humidity. […]

two weeds = tested on: two weeds; parameters: method as in PMID 11076561; conditions: cited from earlier work

C/C(=C/CCC(C)C)c1ccc(CO)cc1O [(Z)-5-(Hydroxymethyl)-2-(6′) methylhept-2′-en-2′-yl)-phenol, reference compound]
MIC against K. pneumonia (K. pneumonia): 10.7 mM (≈ 2510 µg/mL)

14-hydroxyterezine D
IC50 (A-549 cells): 7.31 µM

COc1ccc([C@H]2N[C@H](CO)[C@@H](O)[C@@H]2O)cc1O [Compound A7, radicamine A]
α-glucosidase inhibitory activity (α-glucosidase): exhibit α-glucosidase inhibitory activity

COc1ccc2c(c1)NC(=O)[C@@]21C=C2C(=O)N3CCC[C@H]3C(=O)N2[C@H]1C=C(C)C [6-methoxyspirotryprostatin B]
IC50 (A-549 cells): 8.29 µM

COC(=O)/C=C/c1cc(OC)c(OC)c(OC)c1 [Compound A6, methyl trimethoxycinnamate]
inhibitory activity against Staphylococcus aureus (Staphylococcus aureus): showed inhibitory activity against Staphylococcus aureus

Cc1cc(O)cc(Oc2cc(C)cc(O)c2)c1 [Compound A3, diorcinol]
IC50 (nematode): 50 µM | IC50 (TCPTP): > 20 µM | IC50 (PTP1B): > 20 µM | IC50 (CD45): 4.03 ± 0.13 µM | MIC against K. pneumonia (K. pneumonia): 21.7 mM (≈ 5000 µg/mL) | IC50 (SHP1): 0.96 ± 0.02 µM

COC(=O)CCCCCCC(=O)Nc1ccccc1 [Compound S1, methyl 8-oxo-8-(phenylamino) octanoate]
HDAC inhibitory activity (HDAC): displayed HDAC inhibitory activity

O=C(CCCCCCC(=O)Nc1ccccc1)NO [SAHA, suberoylanilide hydroxamic acid]
effect on mycelial growth and spore germination (A. sydowii DL1045; 250 μM SAHA, 10 days, scanning electron microscopy): inhibited mycelial growth and spore germination | weight of metabolites, times lower in SAHA group than in control group (A. sydowii DL1045; after 10 days, ethyl acetate extract (Figure S1)): 3.5 times

O=C(O)CCCCCCC(=O)Nc1ccccc1 [Compound S2, suberanilic acid]
HDAC inhibitory activity (HDAC): displayed HDAC inhibitory activity

C/C(=C\CCC(C)C)c1ccc(CO)cc1O [Compound A4, aspergillusene A]
IC50 (nematode): > 100 µM | IC50 (TCPTP): > 20 µM | IC50 (PTP1B): 9.65 ± 0.73 µM | IC50 (CD45): > 20 µM | MIC against K. pneumonia (K. pneumonia): 21.4 mM (≈ 5010 µg/mL) | IC50 (SHP1): 8.69 ± 0.26 µM

COc1ccc2c(C[C@@H]3NC(=O)[C@@H]4CCCN4C3=O)c(C(=O)C=C(C)C)[nH]c2c1 [18-oxotryprostatin A]
IC50 (A-549 cells): 1.28 µM

Cc1cc(Oc2cc(O)cc(C)c2C(=O)O)cc(O)c1C(=O)O [Compound A13, diorcinol acid]
IC50 (nematode): > 100 µM | IC50 (TCPTP): > 20 µM | IC50 (PTP1B): > 20 µM | IC50 (CD45): 4.46 ± 0.16 µM | IC50 (SHP1): 2.16 ± 0.23 µM

Cc1cc(O)cc(OC(=O)c2c(C)cc(O)cc2O)c1 [Compound A9, lecanorin]
IC50 (nematode): > 100 µM | IC50 (TCPTP): > 20 µM | IC50 (PTP1B): 7.6 ± 0.21 µM | inhibition of radicle growth and germination of two weeds (two weeds): markedly inhibited the radicle growth and germination of the two weeds | IC50 (CD45): 7.4 ± 0.08 µM | IC50 (SHP1): 6.01 ± 0.18 µM
